# According to patent US9809562B2, “NAT10 modulators for treating or preventing laminopathies, aging and cancer” (CAMBRIDGE ENTERPRISE LIMITED, priority 2014, dated 2017):
# Structures can show the parent of a compound that is named as a salt.
# Columns and labels:
# [1] = system: tissues from Lmna^G609G/G609G mice; test: γH2AX relative to total H2AX in mouse tissues (western blot); assay type: in vivo
# Method: Tissues from wild type mice or Lmna^G609G/G609G mice treated with Compound 2 were harvested and proteins were extracted and loaded on a western blot which is shown in FIG. 26. Lmna^G609G/G609G mice indeed show progerin expression (readily detectable mainly in the Lung tissues), confirming their genotype. DNA damage was assessed by the DNA double strand break marker γH2AX that was quantified using a Licor Odyssey Imaging system.
# [2] = system: tubulin in U2OS cells; test: Analysis of soluble or polymerised tubulin; assay type: cell-based, human; settings: 5 μM Remodelin 16 hours
# Method: U2OS cells pre-treated with 5 μM Remodelin for 16 hours or with 10 μM nocodazole for 8 hours, were lysed in MT Stabilization Buffer (MSB) (85 mM PIPES [pH 6.9], 1 mM EGTA, 1 mM MgCl2, 2M glycerol, 0.5% Triton with 4 μg/ml Taxol). Lysates were kept at 4° C. for 2 minutes and then centrifuged for 10 minutes at 13,000 rpm. Supernatants, representing the soluble fraction of proteins, were transferred to new tubes, and Laemmli buffer was added. Pellets, representing the polymerized fraction of proteins, were washed once in MSB without Triton, and then resuspended in Laemmli buffer. Equal amounts of lysate were loaded on a gradient gel.
# [3] = system: HGPS primary fibroblasts (AG11498 and AG06267); test: Misshapen nuclei in HGPS cells; assay type: cell-based, human; settings: HGPS patient fibroblasts
# Method: U2OS and SaOS-2 osteosarcoma cells, HeLa cervical cancer cells, A431 melanoma cells, NCI-SNU5 gastric cancer cells, MRC-5 lung fibroblast cells and Werner syndrome patient-derived SV40 fibroblast cells were grown in Dulbecco's modified Eagle medium (DMEM, Sigma-Aldrich) supplemented with 10% fetal bovine serum (BioSera), 2 mM L-glutamine, 100 U per ml penicillin, 100 μg ml^−1 streptomycin. Normal skin primary fibroblasts GM03440 and Hutchinson Gilford Progeria Syndrome (HGPS) skin primary fibroblasts AG11498 and AG06297 were purchased from Coriell Cell Repositories and used between passage number 9-12 and 20-23 respectively. Cells were grown in DMEM supplemented as above. RPE-1 retinal pigment epithelial cells were grown in DMEM and Ham F12 mix medium supplemented as above and buffered with sodium bicarbonate. HMV-II melanoma cell line, 22RV1 prostate carcinoma cells, NCI-H82 and NCI-H69 lung carcinoma cells, and NCI-N87 gastric cancer cell lines were grown in RPMI-1640 medium (Sigma-Aldrich) supplemented as above. Stably transfected U2OS cells were maintained in standard medium containing 1 mg ml^−1 G418 (Invitrogen). The siRNA duplexes were obtained from Life Sciences: Lamin A/C stealth RNAi: […] (SEQ ID NO: 1) and […] (SEQ ID NO: 2), NAT10 stealth RNAi: […] (SEQ ID NO: 3), and as control siRNA, stealth RNAi negative control duplexes were used. Plasmid DNA and siRNA transfections were carried out using Lipofectamine 2000 and Lipofectamine RNAiMax (Life Sciences) respectively, following the manufacturer's instructions. Cells were analysed 48 to 72 hours after transfection.
# The following KAT and KDAC inhibitors were used in the nuclear shape rescue screen, incubating cells with the molecules for 16 hours: trichostatin A (1 μM), sodium butyrate (5 mM), tubacin (10 μM), SAHA (5 μM), curcumin (10 μM), garcinol (50 μM), anacardic acid (1 μM), MB-3 (5 μM), 4-(4-chlorophenyl)-2-(2-cyclopentylidenehydrazinyl)thiazole (Compound 2) (50 μM), 4-(4-chlorophenyl)-2-(2-cyclopentylidene-1-(prop-2-yn-1-yl)hydrazinyl)thiazole (Compound 3) (50 μM) and cyclopentylidene-[4-(4-cyanophenyl)thiazol-2-yl)hydrazine (Compound 1) (Remodelin) (10 to 50 μM). For HGPS cellular fitness assays, Remodelin was incubated at 1 μM for 1 to 10 days, renewing the medium every 3 days. For long-term senescence assay, cells were kept and passaged in medium containing 1 μM Remodelin or DMSO only for 12 population doublings. Senescence was assessed after 8 days of Remodelin treatment when cells were at Population Doubling 12, and then after several weeks of Remodelin treatment, when cells reached Population Doubling 24 using the Senescence β-Galactosidase Staining Kit #9860 from Cell Signaling. Nocodazole, colchicine and latrunculin A (Sigma-Aldrich) were used at 200 ng/ml, 1 μg/ml and 1 μM respectively. […]
Structure (SMILES),"DNA damage (γH2AX relative to total H2AX) ([1]; heart and lung, treated vs untreated Lmna^G609G/G609G mice)",DNA damage (γH2AX relative to total H2AX) ([1]; liver extracts),tubulin assembly into polymers [2],misshapen nuclei / nuclear shape of HGPS cells [3]
"Clc1ccc(-c2csc(NN=C3CCCC3)n2)cc1 [Compound 2, 4-(4-Chlorophenyl)-2-(2-cyclopentylidenehydrazinyl)thiazole Hydrochloride Salt]",clear decrease of DNA damage,No effect,,
"N#Cc1ccc(-c2csc(NN=C3CCCC3)n2)cc1 [Compound 1, 4-(4-Cyanophenyl)-2-(2-cyclopentylidenehydrazinyl)thiazole]",,,did not affect Golgi apparatus integrity (FIG. 13C) or tubulin assembly into polymers,significantly reduced the number of HGPS cells with misshapen nuclei
